Measurements from ChEMBL document CHEMBL1150977, “A quantitative analysis of kinase inhibitor selectivity” (Nat Biotechnol, 2008).
pKd: −log10 of the molar value.

Tests used:
[1] = target: Epithelial discoidin domain-containing receptor 1 (Homo sapiens, UniProt Q08345)
[2] = target: Mitogen-activated protein kinase kinase kinase kinase 4 (Homo sapiens, UniProt O95819)
[3] = target: Cyclin-dependent kinase 5 (Homo sapiens, UniProt Q00535)
[4] = target: Protein kinase C theta type (Homo sapiens, UniProt Q04759)
[5] = target: Cyclin-dependent kinase 17 (Homo sapiens, UniProt Q00537)
[6] = target: Serine/threonine-protein kinase MRCK gamma (Homo sapiens, UniProt Q6DT37)
[7] = target: Protein kinase C eta type (Homo sapiens, UniProt P24723)
[8] = target: Glycogen synthase kinase-3 beta (Homo sapiens, UniProt P49841)
[9] = target: Insulin-like growth factor 1 receptor (Homo sapiens, UniProt P08069)
[10] = target: Casein kinase II subunit alpha' (Homo sapiens, UniProt P19784)
[11] = target: T1, Membrane-associated tyrosine- and threonine-specific cdc2-inhibitory kinase (Homo sapiens, UniProt Q99640)
T1 sequence (Q99640 whole entry): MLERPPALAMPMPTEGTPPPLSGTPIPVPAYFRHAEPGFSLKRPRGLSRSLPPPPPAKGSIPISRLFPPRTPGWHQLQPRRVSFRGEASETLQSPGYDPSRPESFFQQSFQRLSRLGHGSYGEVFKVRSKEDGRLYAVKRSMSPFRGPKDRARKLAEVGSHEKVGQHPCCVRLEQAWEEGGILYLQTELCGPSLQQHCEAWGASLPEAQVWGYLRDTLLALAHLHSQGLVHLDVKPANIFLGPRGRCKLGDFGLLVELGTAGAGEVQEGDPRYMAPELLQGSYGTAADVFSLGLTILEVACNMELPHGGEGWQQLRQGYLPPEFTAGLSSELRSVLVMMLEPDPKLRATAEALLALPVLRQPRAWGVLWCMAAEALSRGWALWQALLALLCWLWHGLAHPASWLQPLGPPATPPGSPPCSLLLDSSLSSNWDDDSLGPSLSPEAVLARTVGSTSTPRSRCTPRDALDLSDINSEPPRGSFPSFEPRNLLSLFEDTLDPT

[12] = target: T2, Receptor-type tyrosine-protein kinase FLT3 (Homo sapiens, UniProt P36888)
T2 sequence (P36888 whole entry): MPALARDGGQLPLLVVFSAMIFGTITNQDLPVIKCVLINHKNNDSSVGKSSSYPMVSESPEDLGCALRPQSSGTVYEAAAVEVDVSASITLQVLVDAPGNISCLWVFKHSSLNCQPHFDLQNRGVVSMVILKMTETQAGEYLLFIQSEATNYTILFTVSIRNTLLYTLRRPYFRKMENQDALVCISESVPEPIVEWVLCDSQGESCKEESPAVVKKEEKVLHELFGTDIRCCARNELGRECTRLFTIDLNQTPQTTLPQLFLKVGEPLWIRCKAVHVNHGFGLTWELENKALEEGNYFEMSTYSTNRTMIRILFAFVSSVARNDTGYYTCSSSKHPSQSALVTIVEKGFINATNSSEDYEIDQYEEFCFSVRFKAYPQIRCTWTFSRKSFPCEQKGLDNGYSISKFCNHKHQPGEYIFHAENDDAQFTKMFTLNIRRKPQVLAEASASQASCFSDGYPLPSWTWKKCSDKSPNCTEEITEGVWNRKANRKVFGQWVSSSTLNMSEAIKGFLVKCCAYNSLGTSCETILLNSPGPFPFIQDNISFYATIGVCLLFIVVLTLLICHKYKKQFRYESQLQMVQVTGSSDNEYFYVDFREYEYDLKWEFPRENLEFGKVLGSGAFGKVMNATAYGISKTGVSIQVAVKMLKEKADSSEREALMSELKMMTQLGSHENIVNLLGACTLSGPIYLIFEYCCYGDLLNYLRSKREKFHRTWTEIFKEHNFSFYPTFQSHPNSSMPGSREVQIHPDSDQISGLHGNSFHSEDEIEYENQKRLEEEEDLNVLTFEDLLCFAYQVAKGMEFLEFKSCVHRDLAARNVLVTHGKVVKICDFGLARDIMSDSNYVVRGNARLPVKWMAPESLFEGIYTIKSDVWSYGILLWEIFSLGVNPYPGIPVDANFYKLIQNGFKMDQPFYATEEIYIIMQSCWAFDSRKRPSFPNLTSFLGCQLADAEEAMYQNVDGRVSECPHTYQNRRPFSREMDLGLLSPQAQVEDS

[13] = target: Proto-oncogene tyrosine-protein kinase Src (Homo sapiens, UniProt P12931)
[14] = target: Ribosomal protein S6 kinase alpha-2 (Homo sapiens, UniProt Q15349)
[15] = target: Cyclin-dependent kinase 8 (Homo sapiens, UniProt P49336)

Sequence of Glycogen synthase kinase-3 beta (P49841 whole entry): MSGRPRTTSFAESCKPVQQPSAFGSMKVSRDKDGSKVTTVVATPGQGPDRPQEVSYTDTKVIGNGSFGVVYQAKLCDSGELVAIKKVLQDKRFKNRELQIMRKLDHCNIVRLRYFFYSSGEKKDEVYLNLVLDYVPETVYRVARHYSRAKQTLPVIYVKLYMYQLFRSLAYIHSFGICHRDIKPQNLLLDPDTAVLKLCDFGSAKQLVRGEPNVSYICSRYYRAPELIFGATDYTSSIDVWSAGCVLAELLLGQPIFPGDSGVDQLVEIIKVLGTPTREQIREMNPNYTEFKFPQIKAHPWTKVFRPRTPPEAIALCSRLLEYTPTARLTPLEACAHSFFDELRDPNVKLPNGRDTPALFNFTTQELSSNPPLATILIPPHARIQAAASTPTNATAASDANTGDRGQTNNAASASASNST
Sequence of Epithelial discoidin domain-containing receptor 1 (Q08345 whole entry, the tested form may be a part): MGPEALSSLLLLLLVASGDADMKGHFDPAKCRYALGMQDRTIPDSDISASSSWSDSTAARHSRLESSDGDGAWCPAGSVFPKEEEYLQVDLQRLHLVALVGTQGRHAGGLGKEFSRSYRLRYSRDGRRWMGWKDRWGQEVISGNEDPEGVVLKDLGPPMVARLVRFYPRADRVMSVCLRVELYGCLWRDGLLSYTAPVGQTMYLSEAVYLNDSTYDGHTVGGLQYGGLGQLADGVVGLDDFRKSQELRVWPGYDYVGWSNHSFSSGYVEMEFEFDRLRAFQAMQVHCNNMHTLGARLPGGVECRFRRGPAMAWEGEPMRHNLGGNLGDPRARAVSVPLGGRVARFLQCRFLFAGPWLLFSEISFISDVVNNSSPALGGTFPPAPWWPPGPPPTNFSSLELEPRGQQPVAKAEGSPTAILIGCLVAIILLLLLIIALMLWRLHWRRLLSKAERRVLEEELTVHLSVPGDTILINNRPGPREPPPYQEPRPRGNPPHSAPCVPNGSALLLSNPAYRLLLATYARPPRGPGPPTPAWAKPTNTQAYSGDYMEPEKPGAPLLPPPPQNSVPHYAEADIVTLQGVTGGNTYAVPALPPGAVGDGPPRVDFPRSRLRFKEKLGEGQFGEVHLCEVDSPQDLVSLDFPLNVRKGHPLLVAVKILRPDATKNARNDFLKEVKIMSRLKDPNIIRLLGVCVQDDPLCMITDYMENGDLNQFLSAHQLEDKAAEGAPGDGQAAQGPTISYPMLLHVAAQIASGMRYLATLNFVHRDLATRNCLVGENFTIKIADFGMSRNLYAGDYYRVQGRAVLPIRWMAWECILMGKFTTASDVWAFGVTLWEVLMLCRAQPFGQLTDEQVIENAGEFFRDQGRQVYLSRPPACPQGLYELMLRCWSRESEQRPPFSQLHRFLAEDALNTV
Sequence of Cyclin-dependent kinase 17 (Q00537 whole entry): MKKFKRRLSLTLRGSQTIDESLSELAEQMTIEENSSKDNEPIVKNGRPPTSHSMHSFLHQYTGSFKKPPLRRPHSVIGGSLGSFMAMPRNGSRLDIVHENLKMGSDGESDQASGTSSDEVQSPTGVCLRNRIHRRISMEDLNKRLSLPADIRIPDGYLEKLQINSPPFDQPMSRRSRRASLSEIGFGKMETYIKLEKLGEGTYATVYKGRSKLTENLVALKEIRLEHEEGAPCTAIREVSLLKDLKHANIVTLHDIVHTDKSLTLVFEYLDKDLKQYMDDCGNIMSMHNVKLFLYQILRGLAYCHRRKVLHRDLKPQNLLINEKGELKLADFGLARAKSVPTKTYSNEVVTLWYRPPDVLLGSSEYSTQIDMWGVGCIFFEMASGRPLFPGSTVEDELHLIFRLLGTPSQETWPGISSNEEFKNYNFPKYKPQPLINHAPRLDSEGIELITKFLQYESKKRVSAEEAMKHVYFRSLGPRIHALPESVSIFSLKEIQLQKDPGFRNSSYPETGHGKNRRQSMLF
Sequence of Insulin-like growth factor 1 receptor (P08069 31-736 limits assumed): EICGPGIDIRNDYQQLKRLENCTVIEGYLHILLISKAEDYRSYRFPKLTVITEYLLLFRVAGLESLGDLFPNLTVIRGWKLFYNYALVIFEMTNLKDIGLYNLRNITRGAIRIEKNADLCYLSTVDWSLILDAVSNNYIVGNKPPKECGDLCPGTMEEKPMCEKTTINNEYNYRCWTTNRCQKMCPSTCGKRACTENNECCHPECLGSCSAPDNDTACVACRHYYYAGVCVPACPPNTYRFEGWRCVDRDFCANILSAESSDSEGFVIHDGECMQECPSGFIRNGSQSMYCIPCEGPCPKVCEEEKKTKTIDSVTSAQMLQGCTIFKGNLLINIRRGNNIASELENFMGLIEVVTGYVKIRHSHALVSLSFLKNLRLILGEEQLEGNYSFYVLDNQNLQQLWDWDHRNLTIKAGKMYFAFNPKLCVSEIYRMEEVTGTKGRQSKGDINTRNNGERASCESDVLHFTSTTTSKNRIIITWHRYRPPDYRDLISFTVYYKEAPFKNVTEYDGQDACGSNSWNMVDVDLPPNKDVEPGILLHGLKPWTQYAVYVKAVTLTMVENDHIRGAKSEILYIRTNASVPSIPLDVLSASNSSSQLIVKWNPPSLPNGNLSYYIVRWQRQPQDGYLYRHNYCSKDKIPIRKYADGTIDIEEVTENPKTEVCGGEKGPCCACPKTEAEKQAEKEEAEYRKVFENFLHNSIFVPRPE
Sequence of Insulin-like growth factor 1 receptor (P08069 741-1367 limits assumed): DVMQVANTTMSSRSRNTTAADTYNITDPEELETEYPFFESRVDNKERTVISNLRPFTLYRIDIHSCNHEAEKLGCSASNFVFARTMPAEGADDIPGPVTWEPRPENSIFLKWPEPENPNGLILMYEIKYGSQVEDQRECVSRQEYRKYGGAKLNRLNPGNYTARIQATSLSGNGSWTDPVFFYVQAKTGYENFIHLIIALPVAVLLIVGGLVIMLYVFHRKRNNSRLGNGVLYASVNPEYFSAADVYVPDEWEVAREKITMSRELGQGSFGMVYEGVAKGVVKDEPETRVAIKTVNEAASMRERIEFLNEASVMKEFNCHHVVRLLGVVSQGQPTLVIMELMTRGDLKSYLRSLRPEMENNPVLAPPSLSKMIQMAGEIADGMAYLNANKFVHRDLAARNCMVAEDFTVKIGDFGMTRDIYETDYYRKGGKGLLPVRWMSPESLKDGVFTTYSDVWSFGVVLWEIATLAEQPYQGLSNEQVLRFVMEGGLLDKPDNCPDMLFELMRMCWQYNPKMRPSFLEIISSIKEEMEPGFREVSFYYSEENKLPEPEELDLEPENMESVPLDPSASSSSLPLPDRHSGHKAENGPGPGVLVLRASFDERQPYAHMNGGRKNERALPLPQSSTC
Sequence of Casein kinase II subunit alpha' (P19784 whole entry): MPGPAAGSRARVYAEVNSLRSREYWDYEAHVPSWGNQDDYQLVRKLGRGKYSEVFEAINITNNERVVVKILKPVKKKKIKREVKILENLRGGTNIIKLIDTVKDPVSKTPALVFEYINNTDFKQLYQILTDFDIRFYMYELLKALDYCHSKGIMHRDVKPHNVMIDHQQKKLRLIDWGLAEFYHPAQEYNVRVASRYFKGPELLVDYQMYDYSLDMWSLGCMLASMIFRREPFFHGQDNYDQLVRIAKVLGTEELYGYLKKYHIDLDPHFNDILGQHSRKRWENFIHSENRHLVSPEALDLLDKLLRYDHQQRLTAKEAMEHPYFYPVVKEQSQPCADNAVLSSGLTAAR
Sequence of Cyclin-dependent kinase 5 (Q00535 whole entry): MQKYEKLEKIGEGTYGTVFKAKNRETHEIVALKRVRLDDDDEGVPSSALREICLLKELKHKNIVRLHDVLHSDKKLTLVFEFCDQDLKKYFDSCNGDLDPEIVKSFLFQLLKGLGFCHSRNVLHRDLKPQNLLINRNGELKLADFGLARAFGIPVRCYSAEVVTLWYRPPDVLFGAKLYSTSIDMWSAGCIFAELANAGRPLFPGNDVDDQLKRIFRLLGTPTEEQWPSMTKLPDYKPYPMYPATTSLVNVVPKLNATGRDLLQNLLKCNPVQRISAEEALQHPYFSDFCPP
Sequence of Ribosomal protein S6 kinase alpha-2 (Q15349 whole entry): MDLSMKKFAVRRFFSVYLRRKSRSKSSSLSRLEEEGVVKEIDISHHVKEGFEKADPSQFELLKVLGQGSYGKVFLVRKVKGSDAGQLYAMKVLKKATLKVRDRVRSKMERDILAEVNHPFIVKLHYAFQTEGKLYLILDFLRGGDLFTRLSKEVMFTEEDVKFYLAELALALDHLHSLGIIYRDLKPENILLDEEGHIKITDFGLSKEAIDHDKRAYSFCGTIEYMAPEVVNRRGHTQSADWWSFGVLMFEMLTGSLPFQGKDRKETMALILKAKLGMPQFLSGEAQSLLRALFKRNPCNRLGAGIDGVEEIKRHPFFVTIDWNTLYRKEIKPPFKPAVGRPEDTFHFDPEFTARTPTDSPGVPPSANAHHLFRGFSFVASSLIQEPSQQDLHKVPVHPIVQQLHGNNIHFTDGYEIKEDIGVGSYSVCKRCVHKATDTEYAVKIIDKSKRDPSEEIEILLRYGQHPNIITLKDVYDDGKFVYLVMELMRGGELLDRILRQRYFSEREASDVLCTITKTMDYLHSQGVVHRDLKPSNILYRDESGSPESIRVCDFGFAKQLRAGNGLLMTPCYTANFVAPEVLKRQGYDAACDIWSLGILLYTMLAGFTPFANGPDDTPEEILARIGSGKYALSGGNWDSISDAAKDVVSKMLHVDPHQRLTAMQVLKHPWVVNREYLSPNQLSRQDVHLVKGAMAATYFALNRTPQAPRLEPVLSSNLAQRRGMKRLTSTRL

| Structure (SMILES) | pKd [1] | pKd [2] | pKd [3] | pKd [4] | pKd [5] | pKd [6] | pKd [7] | pKd [8] | pKd [9] | pKd [10] | pKd [11] | pKd [12] | pKd [13] | pKd [14] | pKd [15] |
| --- | --- | --- | --- | --- | --- | --- | --- | --- | --- | --- | --- | --- | --- | --- | --- |
| COCC(=O)NC/C=C/c1ccc2ncnc(Nc3ccc(Oc4ccc(C)nc4)c(C)c3)c2c1 [CP-724714] | < 5.00 | < 5.00 | < 5.00 | < 5.00 | < 5.00 | < 5.00 | < 5.00 | < 5.00 | < 5.00 | < 5.00 | < 5.00 | < 5.00 | < 5.00 | < 5.00 |  |
| CCOc1cc2ncc(C#N)c(Nc3ccc(F)c(Cl)c3)c2cc1NC(=O)/C=C/CN(C)C [PELITINIB] | < 5.00 |  | < 5.00 | < 5.00 | < 5.00 | < 5.00 | < 5.00 | < 5.00 | < 5.00 | < 5.00 | 5.54 | < 5.00 |  | 5.06 | < 5.00 |
| NC(=O)c1ccc(-c2nc(-c3ccc4c(c3)OCO4)c(-c3ccccn3)[nH]2)cc1 [SB-431542] | < 5.00 | < 5.00 | < 5.00 | < 5.00 | < 5.00 | < 5.00 | < 5.00 | < 5.00 | < 5.00 | < 5.00 | < 5.00 |  | < 5.00 | < 5.00 | < 5.00 |
| CCN1CCN(Cc2ccc(NC(=O)Nc3ccc(Oc4cc(NC)ncn4)cc3)cc2C(F)(F)F)CC1 [AST-487] |  |  | 6.00 |  |  |  |  |  |  |  |  |  |  |  |  |
| Nc1nc(Nc2ccc(S(N)(=O)=O)cc2)nn1C(=O)c1c(F)cccc1F [JNJ-7706621] | < 5.00 |  |  |  |  | < 5.00 | < 5.00 |  |  |  | < 5.00 |  | < 5.00 | < 5.00 |  |
| Oc1ccc(-c2nc(-c3ccncc3)c(-c3ccc(F)cc3)[nH]2)cc1 [SB-202190] |  | < 5.00 | < 5.00 | < 5.00 | < 5.00 | 6.19 | < 5.00 | 5.57 | < 5.00 | < 5.00 | < 5.00 | < 5.00 | < 5.00 | < 5.00 | < 5.00 |
